Assay results as given in patent US11674172B2, “PIRNA-54265 detection kit used for early screening, diagnosis, curative efficacy monitoring and prognostic evaluation of colorectal cancer” (SUN YAT-SEN UNIVERSITY, priority 2018, dated 2023).

Test system: colorectal cancer cell lines with stably overexpressed or knockdown piR-54265
Experiment: IC50 experiments with chemotherapy drugs on colorectal cancer cell lines with overexpressed or knockdown piR-54265
Format: cell-based
Conditions: for cell chemosensitivity (change of IC50): cells after knocking down piR-54265, versus control; for chemoresistance of the colorectal cancer cells (change of IC50): cells overexpressing piR-54265, versus control
Text: IC50 experiments with the first-line colorectal cancer chemotherapy drugs 5-FU and L-OHP were respectively performed on colorectal cancer cell lines with stably overexpressed or knockdown piR-54265. Subcutaneous xenograft tumors in nude mice were established using the stable cell lines mentioned above, and when a tumor volume reached 250 mm^3, treatment of intraperitoneal injection with 5-FU or L-OHP was started, and the change of the tumor volume was periodically measured.

Structure (SMILES) | cell chemosensitivity (change of IC50) | chemoresistance of the colorectal cancer cells (change of IC50)
O=c1[nH]cc(F)c(=O)[nH]1 [5-FU] | improved | enhanced
N[C@@H]1CCCC[C@H]1N.O=C([O-])C(=O)[O-].[Pt+2] [L-OHP] | improved | enhanced
